# Laboratory results reported in PubChem BioAssay AID1963420 (Molecular Pharmacology Branch, DTP, NCI, 2024).
# pIC50: −log10 of the molar value.
# Tested on: 494315-158-R-J1-PDC complex spheroid growth, percent test/control
# Assay: Anticancer human tumor 494315-158-R-J1-PDC patient-derived soft tissue sarcoma cell line growth inhibition [Asc]
# Conditions: for pIC50: curve of first compound; for viability, T/C: stronger effect = lower value
# In short: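 Complex spheroids combining tumor cells with HUVEC endothelial cells and human MSCs, at 37 degrees C, 5% CO2; agents tested alone or combined, half-log dilutions from at or near clinical Cmax, or 10 microM if Cmax unknown.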
# 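Note: compound exposure lasted seven days after spheroids formed for three days.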
smiles,measurement,setting,value
O=C(c1ccc(F)c(F)c1Nc1ccc(I)cc1F)N1CC(O)([C@@H]2CCCCN2)C1 + Cc1c(S(C)(=O)=O)c(-c2cc(F)cc(N3CCN(c4ccc(NS(=O)(=O)c5ccc(NC(CCN6CCC(C(=O)OCCCP(=O)(O)O)CC6)CSc6ccccc6)c(S(=O)(=O)C(F)(F)F)c5)cc4)CC3)c2)c(-c2ccc(Cl)cc2)n1C(C)C,pIC50,second compound 0.1 µM,6.27
same,pIC50,second compound 0.316 µM,6.43
same,pIC50,second compound 1 µM,6.59
same,pIC50,second compound 3.16 µM,6.85
same,pIC50,second compound 10 µM,6.61
same,"viability, T/C","second compound 0.1 µM, first compound 0.00316 µM",78.8%
same,"viability, T/C","second compound 0.1 µM, first compound 0.01 µM",78.8%
same,"viability, T/C","second compound 0.1 µM, first compound 0.0316 µM",87.4%
same,"viability, T/C","second compound 0.1 µM, first compound 0.1 µM",85.3%
same,"viability, T/C","second compound 0.1 µM, first compound 0.316 µM",72.1%
same,"viability, T/C","second compound 0.1 µM, first compound 1 µM",24.9%
same,"viability, T/C","second compound 0.316 µM, first compound 0.00316 µM",71.2%
same,"viability, T/C","second compound 0.316 µM, first compound 0.01 µM",78.9%
same,"viability, T/C","second compound 0.316 µM, first compound 0.0316 µM",70.6%
same,"viability, T/C","second compound 0.316 µM, first compound 0.1 µM",72%
same,"viability, T/C","second compound 0.316 µM, first compound 0.316 µM",55.8%
same,"viability, T/C","second compound 0.316 µM, first compound 1 µM",15.5%
same,"viability, T/C","second compound 1 µM, first compound 0.00316 µM",60.4%
same,"viability, T/C","second compound 1 µM, first compound 0.01 µM",61.2%
same,"viability, T/C","second compound 1 µM, first compound 0.0316 µM",71.6%
same,"viability, T/C","second compound 1 µM, first compound 0.1 µM",72.5%
same,"viability, T/C","second compound 1 µM, first compound 0.316 µM",46.5%
same,"viability, T/C","second compound 1 µM, first compound 1 µM",12.2%
same,"viability, T/C","second compound 3.16 µM, first compound 0.00316 µM",60.5%
same,"viability, T/C","second compound 3.16 µM, first compound 0.01 µM",53.6%
same,"viability, T/C","second compound 3.16 µM, first compound 0.0316 µM",59.5%
same,"viability, T/C","second compound 3.16 µM, first compound 0.1 µM",53.6%
same,"viability, T/C","second compound 3.16 µM, first compound 0.316 µM",40.7%
same,"viability, T/C","second compound 3.16 µM, first compound 1 µM",18.3%
same,"viability, T/C","second compound 10 µM, first compound 0.00316 µM",68.2%
same,"viability, T/C","second compound 10 µM, first compound 0.01 µM",75.2%
same,"viability, T/C","second compound 10 µM, first compound 0.0316 µM",76.4%
same,"viability, T/C","second compound 10 µM, first compound 0.1 µM",79.9%
same,"viability, T/C","second compound 10 µM, first compound 0.316 µM",43%
same,"viability, T/C","second compound 10 µM, first compound 1 µM",13.7%
Cn1ncnc1[C@H]1c2n[nH]c(=O)c3cc(F)cc(c23)N[C@@H]1c1ccc(F)cc1 + CCN1C(C(=O)NC23CCC(C(=O)O)(CC2)CC3)C(c2cccc(Cl)c2F)C2(C(=O)Nc3cc(Cl)ccc32)C12CCCCC2,pIC50,second compound 0.03 µM,< 7.00
same,pIC50,second compound 0.0949 µM,< 7.00
same,pIC50,second compound 0.3 µM,< 7.00
same,pIC50,second compound 0.949 µM,< 7.00
same,pIC50,second compound 3 µM,< 7.00
same,"viability, T/C","second compound 0.03 µM, first compound 0.000316 µM",104%
same,"viability, T/C","second compound 0.03 µM, first compound 0.001 µM",101%
same,"viability, T/C","second compound 0.03 µM, first compound 0.00316 µM",86.8%
same,"viability, T/C","second compound 0.03 µM, first compound 0.01 µM",78.9%
same,"viability, T/C","second compound 0.03 µM, first compound 0.0316 µM",76.3%
same,"viability, T/C","second compound 0.03 µM, first compound 0.1 µM",57%
same,"viability, T/C","second compound 0.0949 µM, first compound 0.000316 µM",108%
same,"viability, T/C","second compound 0.0949 µM, first compound 0.001 µM",93.4%
same,"viability, T/C","second compound 0.0949 µM, first compound 0.00316 µM",87.1%
same,"viability, T/C","second compound 0.0949 µM, first compound 0.01 µM",66.3%
same,"viability, T/C","second compound 0.0949 µM, first compound 0.0316 µM",64.6%
same,"viability, T/C","second compound 0.0949 µM, first compound 0.1 µM",58.2%
same,"viability, T/C","second compound 0.3 µM, first compound 0.000316 µM",81.8%
same,"viability, T/C","second compound 0.3 µM, first compound 0.001 µM",94.3%
same,"viability, T/C","second compound 0.3 µM, first compound 0.00316 µM",75.5%
same,"viability, T/C","second compound 0.3 µM, first compound 0.01 µM",76.2%
same,"viability, T/C","second compound 0.3 µM, first compound 0.0316 µM",62.9%
same,"viability, T/C","second compound 0.3 µM, first compound 0.1 µM",76.3%
same,"viability, T/C","second compound 0.949 µM, first compound 0.000316 µM",95.3%
same,"viability, T/C","second compound 0.949 µM, first compound 0.001 µM",80.1%
same,"viability, T/C","second compound 0.949 µM, first compound 0.00316 µM",78.4%
same,"viability, T/C","second compound 0.949 µM, first compound 0.01 µM",64%
same,"viability, T/C","second compound 0.949 µM, first compound 0.0316 µM",73.5%
same,"viability, T/C","second compound 0.949 µM, first compound 0.1 µM",72.1%
same,"viability, T/C","second compound 3 µM, first compound 0.000316 µM",105%
same,"viability, T/C","second compound 3 µM, first compound 0.001 µM",92.3%
same,"viability, T/C","second compound 3 µM, first compound 0.00316 µM",67.9%
same,"viability, T/C","second compound 3 µM, first compound 0.01 µM",70.9%
same,"viability, T/C","second compound 3 µM, first compound 0.0316 µM",54.7%
same,"viability, T/C","second compound 3 µM, first compound 0.1 µM",74.2%
